Data from patent US11384062B2 (CombiPhos Catalysts, Inc., priority 2017, dated 2022).

What was measured:
A498 = conditions: 10 μM single dose; Renal Cancer A498
From the text: (§1) The test compounds were screened for anticancer activity at the Development Therapeutic Program (DTP), National Cancer Institute (NCI), USA, against a full NCI 59 cell line panel (six cell lines of leukemia, nine cell lines of lung cancer, seven cell lines of colon cancer, six cell lines of CNS cancer, nine cell lines of melanoma, seven cell lines of ovarian cancer, seven cell lines of renal cancer, two cell lines of prostate cancer, and six cell lines of breast cancer) representing nine human systems in total as leukemia, melanoma, and cancers of the lungs, colon, brain, breast, ovary, kidney, and prostate, according to the applied protocol. A primary in vitro one dose anticancer assay was performed at a single dose (10 μM) against the full NCI 59 cell line panel. The one dose data was reported as a mean graph of the percent growth of treated cells. The number reported for the single dose assay was growth relative to the no drug control and relative to the initial number of cells at time 0. […] A value of −40 means 40% lethality. A value of −100 means all cells are dead.

DU-145 = conditions: 10 μM single dose; Prostate Cancer DU-145
From the text: as §1

HCC-2998 = conditions: 10 μM single dose; Colon Cancer HCC-2998
From the text: as §1

HCT-15 = conditions: 10 μM single dose; Colon Cancer HCT-15
From the text: as §1

HOP-62 = conditions: 10 μM single dose; Non-Small Cell Lung Cancer HOP-62
From the text: as §1

HS 578T = conditions: 10 μM single dose; Breast Cancer HS 578T
From the text: as §1

K-562 = conditions: 10 μM single dose; Leukemia K-562
From the text: as §1

LOX IMVI = conditions: 10 μM single dose; Melanoma LOX IMVI
From the text: as §1

M14 = conditions: 10 μM single dose; Melanoma M14
From the text: as §1

MDA-MB-231/ATCC = conditions: 10 μM single dose; Breast Cancer MDA-MB-231/ATCC
From the text: as §1

NCI-H460 = conditions: 10 μM single dose; Non-Small Cell Lung Cancer NCI-H460
From the text: as §1

OVCAR-3 = conditions: 10 μM single dose; Ovarian Cancer OVCAR-3
From the text: as §1

OVCAR-5 = conditions: 10 μM single dose; Ovarian Cancer OVCAR-5
From the text: as §1

RPMI-8226 = conditions: 10 μM single dose; Leukemia RPMI-8226
From the text: as §1

RXF 393 = conditions: 10 μM single dose; Renal Cancer RXF 393
From the text: as §1

SF-295 = conditions: 10 μM single dose; CNS Cancer SF-295
From the text: as §1

SF-539 = conditions: 10 μM single dose; CNS Cancer SF-539
From the text: as §1

SNB-19 = conditions: 10 μM single dose; CNS Cancer SNB-19
From the text: as §1

SNB-75 = conditions: 10 μM single dose; CNS Cancer SNB-75
From the text: as §1

SR = conditions: 10 μM single dose; Leukemia SR
From the text: as §1

T-47D = conditions: 10 μM single dose; Breast Cancer T-47D
From the text: as §1

UACC-257 = conditions: 10 μM single dose; Melanoma UACC-257
From the text: as §1

UO-31 = conditions: 10 μM single dose; Renal Cancer UO-31
From the text: as §1

Row | Compound | Growth Percentage (A498) | Growth Percentage (DU-145) | Growth Percentage (HCC-2998) | Growth Percentage (HS 578T) | Growth Percentage (K-562) | Growth Percentage (LOX IMVI) | Growth Percentage (M14) | Growth Percentage (MDA-MB-231/ATCC) | Growth Percentage (NCI-H460) | Growth Percentage (OVCAR-3) | Growth Percentage (OVCAR-5) | Growth Percentage (RPMI-8226) | Growth Percentage (RXF 393) | Growth Percentage (SF-295) | Growth Percentage (SF-539) | Growth Percentage (SNB-19) | Growth Percentage (SNB-75) | Growth Percentage (SR) | Growth Percentage (T-47D) | Growth Percentage (UACC-257) | other results
1 | [2H]c1c([2H])c(-n2nc3c(C(N)=O)cccc3c2[2H])c([2H])c([2H])c1C1CCCNC1 (racemic) [Example 11, 2-(4-(piperidin-3-yl)phenyl-2,3,5,6-d4)-2H-indazole-3-d-7-carboxamide] | 83.22% | 87.51% | 80.10% | 81.82% | 87.94% | 71.49% | 90.64% | 76.99% | 80.76% | 97.70% | 89.69% | 78.32% | 107.27% | 90.94% | 77.48% | 85.34% | 76.35% | 37.42% | 90.97% | 102.12% | Growth Percentage (HCT-15): 85.76%; Growth Percentage (HOP-62): 94.55%; Growth Percentage (UO-31): 79.89%
2 | [2H]c1c([2H])c(C2([2H])C([2H])NC([2H])C([2H])C2[2H])c([2H])c([2H])c1-n1cc2cccc(C(N)=O)c2n1 (stereo not shown) [Example 4, 2-(4-(piperidin-3-yl-2,3,4,5,6-d5)phenyl-2,3,5,6-d4)-2H-indazole-7-carboxamide] | 89.03% | 89.54% | 83.97% | 86.01% | 77.76% | 70.64% | 84.68% | 80.47% | 76.94% | 107.53% | 89.23% | 90.85% | 102.74% | 85.63% | 82.30% | 88.53% | 70.09% | 47.47% | 98.04% | 107.99% | Growth Percentage (UO-31): 75.43%
3 | [2H]C1([2H])NC([2H])([2H])C([2H])(c2ccc(-n3cc4cccc(C(N)=O)c4n3)cc2)C([2H])([2H])C1([2H])[2H] (racemic) [Example 3, 2-(4-(piperidin-3-yl-2,2,3,4,4,5,5,6,6-d9)phenyl)-2H-indazole-7-carboxamide] | 90.94% | 97.89% | 88.49% | 86.68% | 89.73% | 76.95% | 98.03% | 83.62% | 86.91% | 103.07% | 100.56% | 87.86% | 111.56% | 96.74% | 96.82% | 91.61% | 76.50% | 59.44% | 98.94% | 97.56% | Growth Percentage (HCT-15): 100.98%; Growth Percentage (HOP-62): 93.86%; Growth Percentage (UO-31): 80.19%
